In publication PMC8022858, “Discovery of bone morphogenetic protein 7-derived peptide sequences that attenuate the human osteoarthritic chondrocyte phenotype” (Molecular Therapy. Methods & Clinical Development, 2021):

System: HACs in OA synovial fluid (SF)
Assay: Peptide bioactivity on HACs cultured in OA synovial fluid (gene expression, sGAG, ALP activity, PGE2)
Type: cell-based, human
Details: 100 nM peptide, 20% (v/v) OA SF; for sGAG content of HAC cultures: 24 h (Figure 3D); for retainment of bioactivity on ALP activity in OA SF environment: 24 h (Figure 3E); for retainment of bioactivity on PGE2 secretion in OA SF environment: 24 h (Figure 3F); for expression of NKX3-2 / OA SF-induced expression of RUNX2, COL10A1, ALPL, MMP13, ADAMTS5, COX-2, and IL6 / OA SF-induced decline of SOX9 and COL2A1 expression: 24 h; for expression of NKX3-2: n = 3 donors (Figure 3A); for OA SF-induced expression of RUNX2, COL10A1, ALPL, MMP13, ADAMTS5, COX-2, and IL6: n = 3 donors (Figures 3B, 3C); for OA SF-induced decline of SOX9 and COL2A1 expression: n = 3 donors in triplicate (Figure 3A)
Text: To further corroborate the potential OA-protective properties of peptides p[63−82] and p[113−132], we mimicked the OA environment by exposing non-OA-HACs to OA SF. Culturing non-OA-HACs in the presence of OA SF reduced their SOX9, COL2A1, and NKX3-2 expression (Figure 3A), whereas expression of RUNX2, COL10A1, ALPL, MMP13, ADAMTS5, COX-2, and IL6 was induced by OA SF (Figures 3B and 3C). This was accompanied by increased ALP activity and PGE2 secretion (Figures 3E and 3F). […] The OA SF-induced expression of RUNX2, COL10A1, ALPL, MMP13, ADAMTS5, COX-2, and IL6 was, without exception, mitigated by peptides p[63−82] and p[113−132] (Figures 3B and 3C). sGAG content of HAC cultures was unaltered by the peptides (Figure 3D). Retainment of peptide p[63−82] and p[113−132] bioactivity on HACs in an OA SF environment was also confirmed for ALP activity (Figure 3E) and PGE2 secretion (Figure 3F).
Figure 3 Bioactivity of peptides p[63−82] and p[113−132] on OA articular chondrocytes in OA synovial fluid (SF) […] (n = 3 individual donors, tested in triplicate) were exposed to 100 nM peptide p[63−82] or p[113−132] in the presence of OA SF (20% [v/v]; equal ratio mix from five individual donors). Control is 20% (v/v) 0.9% NaCl. Cells were cultured in these conditions for 24 h and analyzed for mRNA expression of indicated genes (normalized for 28S rRNA expression and relative to control condition). (A) Expression of SOX9, COL2A1, and NKX3-2 mRNAs. (B) Expression of RUNX2, COL10A1, and ALPL mRNAs. (C) Expression of MMP13, ADAMTS5, COX-2, and IL-6 mRNAs. (D) GAG content (normalized to total protein content) was determined in the same conditions. (E) ALP enzyme activity in cell lysates of the same conditions was determined and normalized for total protein content. (F) PGE2 levels in culture supernatants of the same conditions. Error bars represent mean ± SEM, and statistical significance for peptide conditions or control versus SF condition as determined by unpaired two-tailed Student’s t test is represented as ∗p < 0.05, ∗∗p < 0.01, and ∗∗∗p < 0.001.
Cartilage was obtained from total knee arthroplasty of end-stage (K&L grades 3−4) OA patients and from resected knee cartilage from cartilage repair procedures of non-OA patients. Medical ethical permission was received from the Maastricht University Medical Center Medical Ethical Committee (approval number 2017-0183). Chondrocytes were isolated using collagenase as described earlier.[27] The HACs were cultured until passage two in DMEM/F12 (Life Technologies), 10% fetal calf serum (FCS; Sigma-Aldrich), 1% antibiotic/antimycotic (Life Technologies), and 1% non-essential amino acids (Life Technologies) in a humidified atmosphere at 37°C, 5% CO2. SW1353 cells (ATCC HTB-94, short tandem repeat [STR] profiled)[54] were cultured in identical conditions. For experiments, cells were plated in technical triplicates at 30,000 cells/cm^2. BMP7 (R&D Systems) was used at 1 nM. OA SF was perioperatively collected from OA patients (same medical ethics statement [2017-0183] as for cartilage above) and was centrifuged to remove cells/debris. For experiments, an SF pool from five OA patients was prepared (equal volume ratios) and applied on cells in a 20% (v/v) concentration. For RNAi, scrambled and NKX3-2 siRNA duplexes (Table S1) were custom made (Eurogentec). Transfection (100 nM siRNA) in HACs was performed using HiPerFect (QIAGEN) according to the manufacturer’s protocol. The BRE reporter,[32] CAGA12 reporter,[33] or cytomegalovirus (CMV)-Gaussia as transfection control[55] were transfected (100 ng/μL) in SW1353 cells using FuGENE (Promega) according to the manufacturer’s protocol. […]

Substance | sGAG content of HAC cultures | retainment of bioactivity on ALP activity in OA SF environment | retainment of bioactivity on PGE2 secretion in OA SF environment | expression of NKX3-2 | OA SF-induced expression of RUNX2, COL10A1, ALPL, MMP13, ADAMTS5, COX-2, and IL6 | OA SF-induced decline of SOX9 and COL2A1 expression
H-AAYYSEGESAFPLNSYMNAT-OH [p[63−82]] | unaltered | confirmed | confirmed | induced by the peptides to levels higher than in the control condition | mitigated | counteracted to some extent
H-SVLYFDDSSNVILKKYRNMV-OH [p[113−132]] | unaltered | confirmed | confirmed | induced by the peptides to levels higher than in the control condition | mitigated | counteracted to some extent
